Measured values reported in patent publication US11707431B2, “Dental strips for the delivery of specifically targeted antimicrobial peptides” (C3 Jian, LLC, priority 2017, dated 2023).
No end group written: not given here.

tested on: not given; test: not given; details: in vivo; cited from earlier work

Molecule	reduce cavities
OC[C@@H](O)[C@H](O)[C@@H](O)CO [Xylitol]	up to 80%

same assay, conditions: long-term; cited from earlier work

Molecule	long-term reduction in caries
OC[C@@H](O)[C@H](O)[C@@H](O)CO [Xylitol]	88-93%

tested on: S. mutans; test: not given; details: Streptococcus mutans

Molecule	% viability remaining [%]
TFFRLFNRSFTQALDK [G15-D15_C16G2]	47
TWFRLFNRSFTQALGK [F2-W2_C16G2]	45
TFFRLFNRSQTQALGK [F10 to Q10_C16G2]	73
TLFRLFNRSFTQALGK [F2-L2_C16G2]	63
TFFRLFNRSFTQALAK [G15-A15_C16G2]	47
TFFRLFNRSLTQALGK [F10-L10_C16G2]	30
TQFRLFNRSFTQALGK [F2 to Q2_C16G2]	47
TFFRLFNRSFTQALFK [G15-F15_C16G2]	29
TFFRLLNRSFTQALGK [F6-L6_C16G2]	43
TAFRLANRSATQALGK [F2/6/10-A2/6/10_C16G2]	78
TFFRLQNRSFTQALGK [F6 to Q6_C16G2]	79
TQFRLQNRSQTQALGK [F7/11/15 sub Q_C16G2]	93
TLFRLLNRSLTQALGK [F2F6F10-L2L6L10_C16G2]	26

tested on: MRSA; test: MIC against MRSA; assay type: cell-based; details: not given

Molecule	MIC
KFQGEFTNIGQSYIVSASHMSTSLNTGK [PF-583]	MRSA, 50 μM
GSVIKKRRKRMAKKKHRKLLKKTRIQRRRAGK [PF-527]	MRSA, 50 μM
FIRKFLQKLHL [K-16]	MRSA, 25 μM
FESKILNASKELDKEKKVNTALSFNSHQDFAKAYQNGKI [PF-606]	MRSA, 50 μM
RESKLIAMADMIRRRI [PF-545]	MRSA, 50 μM
VLPFPAIPLSRRRACVAAPRPRSRQRAS [PF-168]	MRSA, 50 μM
MGIIAGIIKFIKGLIEKFTGK [PF-006]	MRSA, 50 μM
NYAVVSHT [PF-209]	MRSA, 50 μM
MRFGSLALVAYDSAIKHSWPRPSSVRRLRM [PF-672]	MRSA, 1.56 μM
